Results taken from US11331369B2, “Endoparasitic depsipeptides” (Zoetis Services LLC, priority 2017, dated 2022).

What follows are compounds tested on microfilariae of Dirofilaria immitis (assay: Dirofilaria immitis, Microfilaria (DiMF) In vitro Assay). Conditions: 72 h, read-out: DiMF Minimum Effective Dose (MED), approximately 72 hours incubation, microfilariae assessed for survival or paralysis.
Type: cell-based

Row | Compound | minimal effective concentration [µM]
1 | Cc1cnn(Cc2ccc(C[C@H]3OC(=O)[C@H](CC(C)C)N(C)C(=O)[C@@H](C)OC(=O)[C@H](CC(C)C)N(C)C(=O)[C@@H](Cc4ccc(Cn5cc(C(F)(F)F)cn5)cc4)OC(=O)[C@H](CC(C)C)N(C)C(=O)[C@@H](C)OC(=O)[C@H](CC(C)C)N(C)C3=O)cc2)c1 [Example 1a-30, (3S,6R,9S,12R,15S,18R,21S,24R)-3,9,15,21-tetraisobutyl-4,6,10,16,18,22-hexamethyl-12-(4-((4-methyl-1H-pyrazol-1-yl)methyl)benzyl)-24-(4-((4-(trifluoromethyl)-1H-pyrazol-1-yl)methyl)benzyl)-1,7,13,19-tetraoxa-4,10,16,22-tetraazacyclotetracosan-2,5,8,11,14,17,20,23-octaone] | 0.01 to 0.1
2 | CC(C)C[C@H]1C(=O)O[C@H](Cc2ccc(Cn3cc(Br)c(C#N)n3)cc2)C(=O)N(C)[C@@H](CC(C)C)C(=O)O[C@H](C)C(=O)N(C)[C@@H](CC(C)C)C(=O)O[C@H](Cc2ccc(Cn3cc(N)cn3)cc2)C(=O)N(C)[C@@H](CC(C)C)C(=O)O[C@H](C)C(=O)N1C [Example 1a-32, 1-(4-(((2R,5S,8R,11S,14R,17S,20R,23S)-14-(4-((4-amino-1H-pyrazol-1-yl)methyl)benzyl)-5,11,17,23-tetraisobutyl-4,8,10,16,20,22-hexamethyl-3,6,9,12,15,18,21,24-octaoxo-1,7,13,19-tetraoxa-4,10,16,22-tetraazacyclotetracosan-2-yl)methyl)benzyl)-4-bromo-1H-pyrazole-3-carbonitrile] | 0.01 to 0.1
3 | CC(C)C[C@H]1C(=O)O[C@H](Cc2ccc(Cn3nccc3Cl)cc2)C(=O)N(C)[C@@H](CC(C)C)C(=O)O[C@H](C)C(=O)N(C)[C@@H](CC(C)C)C(=O)O[C@H](Cc2ccc(Cn3ccc(Cl)n3)cc2)C(=O)N(C)[C@@H](CC(C)C)C(=O)O[C@H](C)C(=O)N1C [Example 1a-46, (3S,6R,9S,12R,15S,18R,21S,24R)-6-(4-((3-chloro-1H-pyrazol-1-yl)methyl)benzyl)-18-(4-((5-chloro-1H-pyrazol-1-yl)methyl)benzyl)-3,9,15,21-tetraisobutyl-4,10,12,16,22,24-hexamethyl-1,7,13,19-tetraoxa-4,10,16,22-tetraazacyclotetracosan-2,5,8,11,14,17,20,23-octaone] | 0.001 to 0.01
4 | Cc1cc(CC#N)nn1Cc1ccc(C[C@H]2OC(=O)[C@H](CC(C)C)N(C)C(=O)[C@@H](C)OC(=O)[C@H](CC(C)C)N(C)C(=O)[C@@H](Cc3ccc(Cn4nc(CC#N)cc4C)cc3)OC(=O)[C@H](CC(C)C)N(C)C(=O)[C@@H](C)OC(=O)[C@H](CC(C)C)N(C)C2=O)cc1 [Example 1b-7, 2,2′-((((((2R,5S,8R,11S,14R,17S,20R,23S)-5,11,17,23-tetraisobutyl-4,8,10,16,20,22-hexamethyl-3,6,9,12,15,18,21,24-octaoxo-1,7,13,19-tetraoxa-4,10,16,22-tetraazacyclotetracosane-2,14-diyl)bis(methylene))bis(4,1-phenylene))bis(methylene))bis(5-methyl-1H-pyrazole-1,3-diyl))diacetonitrile] | 0.001 to 0.01
5 | CC(C)C[C@H]1C(=O)O[C@H](Cc2ccc(Cn3nc(CO)cc3C3CC3)cc2)C(=O)N(C)[C@@H](CC(C)C)C(=O)O[C@H](C)C(=O)N(C)[C@@H](CC(C)C)C(=O)O[C@H](Cc2ccc(Cn3nc(CO)cc3C3CC3)cc2)C(=O)N(C)[C@@H](CC(C)C)C(=O)O[C@H](C)C(=O)N1C [Example 1b-8, (3S,6R,9S,12R,15S,18R,21S,24R)-6,18-bis(4-((5-cyclopropyl-3-(hydroxymethyl)-1H-pyrazol-1-yl)methyl)benzyl)-3,9,15,21-tetraisobutyl-4,10,12,16,22,24-hexamethyl-1,7,13,19-tetraoxa-4,10,16,22-tetraazacyclotetracosan-2,5,8,11,14,17,20,23-octaone] | 0.001 to 0.01
6 | CC(C)C[C@H]1C(=O)O[C@H](Cc2ccc(Cn3cc(-c4nccs4)cn3)cc2)C(=O)N(C)[C@@H](CC(C)C)C(=O)O[C@H](C)C(=O)N(C)[C@@H](CC(C)C)C(=O)O[C@H](Cc2ccc(Cn3cc(-c4nccs4)cn3)cc2)C(=O)N(C)[C@@H](CC(C)C)C(=O)O[C@H](C)C(=O)N1C [Example 1b-13, (3S,6R,9S,12R,15S,18R,21S,24R)-3,9,15,21-tetraisobutyl-4,6,10,16,18,22-hexamethyl-12,24-bis(4-((4-(thiazol-2-yl)-1H-pyrazol-1-yl)methyl)benzyl)-1,7,13,19-tetraoxa-4,10,16,22-tetraazacyclotetracosan-2,5,8,11,14,17,20,23-octaone] | 0.01 to 0.1
7 | CSc1cnn(Cc2ccc(C[C@H]3OC(=O)[C@H](CC(C)C)N(C)C(=O)[C@@H](C)OC(=O)[C@H](CC(C)C)N(C)C(=O)[C@@H](Cc4ccc(Cn5cc(SC)cn5)cc4)OC(=O)[C@H](CC(C)C)N(C)C(=O)[C@@H](C)OC(=O)[C@H](CC(C)C)N(C)C3=O)cc2)c1 [Example 1b-20, (3S,6R,9S,12R,15S,18R,21S,24R)-3,9,15,21-tetraisobutyl-4,6,10,16,18,22-hexamethyl-12,24-bis[[4-[(4-methylsulfanylpyrazol-1-yl)methyl]phenyl]methyl]-1,7,13,19-tetraoxa-4,10,16,22-tetrazacyclotetracosane-2,5,8,11,14,17,20,23-octaone] | 0.01 to 0.1
8 | CC(C)C[C@H]1C(=O)O[C@H](Cc2ccc(Cn3cc(/C(N)=N/O)cn3)cc2)C(=O)N(C)[C@@H](CC(C)C)C(=O)O[C@H](C)C(=O)N(C)[C@@H](CC(C)C)C(=O)O[C@H](Cc2ccc(Cn3cc(C(N)=NO)cn3)cc2)C(=O)N(C)[C@@H](CC(C)C)C(=O)O[C@H](C)C(=O)N1C [Example 1b-22, N′-hydroxy-1-[[4-[[(2R,5S,8R,11S,14R,17S,20R,23S)-14-[[4-[[4-[(Z)—N′-hydroxycarbamimidoyl]pyrazol-1-yl]methyl]phenyl]methyl]-5,11,17,23-tetraisobutyl-4,8,10,16,20,22-hexamethyl-3,6,9,12,15,18,21,24-octaoxo-1,7,13,19-tetraoxa-4,10,16,22-tetrazacyclotetracos-2-yl]methyl]phenyl]methyl]pyrazole-4-carboxamidine] | 0.01 to 0.1
9 | CCc1cnn(Cc2ccc(C[C@H]3OC(=O)[C@H](CC(C)C)N(C)C(=O)[C@@H](C)OC(=O)[C@H](CC(C)C)N(C)C(=O)[C@@H](Cc4ccc(Cn5cc(CC)cn5)cc4)OC(=O)[C@H](CC(C)C)N(C)C(=O)[C@@H](C)OC(=O)[C@H](CC(C)C)N(C)C3=O)cc2)c1 [Example 1b-31, (3S,6R,9S,12R,15S,18R,21S,24R)-6,18-bis[[4-[(4-ethylpyrazol-1-yl)methyl]phenyl]methyl]-3,9,15,21-tetraisobutyl-4, 10,12,16,22,24-hexamethyl-1,7,13,19-tetraoxa-4,10,16,22-tetrazacyclotetracosane-2,5,8,11,14,17,20,23-octaone] | 0.01 to 0.1
10 | CC(C)C[C@H]1C(=O)O[C@H](Cc2ccc(Cn3cc(C(F)(F)F)cn3)cc2)C(=O)N(C)[C@@H](CC(C)C)C(=O)O[C@H](C)C(=O)N(C)[C@@H](CC(C)C)C(=O)O[C@H](Cc2ccc(Cn3cc(C(F)(F)F)cn3)cc2)C(=O)N(C)[C@@H](CC(C)C)C(=O)O[C@H](C)C(=O)N1C [Example 1b-34, (3S,6R,9S,12R,15S,18R,21S,24R)-3,9,15,21-tetraisobutyl-4,6,10,16,18,22-hexamethyl-12,24-bis(4-((4-(trifluoromethyl)-1H-pyrazol-1-yl)methyl)benzyl)-1,7,13,19-tetraoxa-4,10,16,22-tetraazacyclotetracosan-2,5,8,11,14,17,20,23-octaone] | 0.01 to 0.1
11 | CC(=O)c1cnn(Cc2ccc(C[C@H]3OC(=O)[C@H](CC(C)C)N(C)C(=O)[C@@H](C)OC(=O)[C@H](CC(C)C)N(C)C(=O)[C@@H](Cc4ccc(Cn5cc(C(C)=O)cn5)cc4)OC(=O)[C@H](CC(C)C)N(C)C(=O)[C@@H](C)OC(=O)[C@H](CC(C)C)N(C)C3=O)cc2)c1 [Example 1b-38, (3S,6R,9S,12R,15S,18R,21S,24R)-6,18-bis(4-((4-acetyl-1H-pyrazol-1-yl)methyl)benzyl)-3,9,15,21-tetraisobutyl-4,10,12,16,22,24-hexamethyl-1,7,13,19-tetraoxa-4,10,16,22-tetraazacyclotetracosan-2,5,8,11,14,17,20,23-octaone] | 0.01 to 0.1
12 | CCOC(=O)c1cnn(Cc2ccc(C[C@H]3OC(=O)[C@H](CC(C)C)N(C)C(=O)[C@@H](C)OC(=O)[C@H](CC(C)C)N(C)C(=O)[C@@H](Cc4ccc(Cn5cc(C(=O)OCC)cn5)cc4)OC(=O)[C@H](CC(C)C)N(C)C(=O)[C@@H](C)OC(=O)[C@H](CC(C)C)N(C)C3=O)cc2)c1 [Example 1b-39, diethyl 1,1′-(((((2R,5S,8R,11S,14R,17S,20R,23S)-5,11,17,23-tetraisobutyl-4,8,10,16,20,22-hexamethyl-3,6,9,12,15,18,21,24-octaoxo-1,7,13,19-tetraoxa-4,10,16,22-tetraazacyclotetracosane-2,14-diyl)bis(methylene))bis(4,1-phenylene))bis(methylene))bis(1H-pyrazole-4-carboxylate)] | 0.01 to 0.1
13 | Cc1nn(Cc2ccc(C[C@H]3OC(=O)[C@H](CC(C)C)N(C)C(=O)[C@@H](C)OC(=O)[C@H](CC(C)C)N(C)C(=O)[C@@H](Cc4ccc(Cn5cc(Br)c(C)n5)cc4)OC(=O)[C@H](CC(C)C)N(C)C(=O)[C@@H](C)OC(=O)[C@H](CC(C)C)N(C)C3=O)cc2)cc1Br [Example 1b-43, (3S,6R,9S,12R,15S,18R,21S,24R)-6,18-bis(4-((4-bromo-3-methyl-1H-pyrazol-1-yl)methyl)benzyl)-3,9,15,21-tetraisobutyl-4,10,12,16,22,24-hexamethyl-1,7,13,19-tetraoxa-4,10,16,22-tetraazacyclotetracosan-2,5,8,11,14,17,20,23-octaone] | 0.01 to 0.1
